Assay results taken from patent US9492418B2, “Inhibitors of PFKFB3 for cancer therapy” (Board of Supervisors of Louisiana State University And …, priority 2011, dated 2016).

What was measured:
T47D = assay: Cell growth inhibition; format: cell-based; conditions: Homo sapiens
Method: (§1) HeLa and T47D cell lines were cultured in a 10% CO2 humidified atmosphere at 37° C. as exponentially growing monolayers in Dulbecco's modified Eagle's medium (DMEM) with glutamax (Invitrogen), supplemented with 10% fetal calf serum (Invitrogen) and penicillin/streptomycin (100 U/ml and 100 μg/ml). The human cervical carcinoma cell line, HeLa, was kindly provided by Dr. J. Kim (Louisiana State University) and the human breast carcinoma cell line, T47D, was obtained from the American Type Culture Collection (Manassas, Va.).
Cell growth inhibition was determined by an XTT-based in-vitro toxicology assay (Sigma-Aldrich) or trypan blue staining. […] After 36 hours of incubation with either vehicle or compounds, cells were trypsinized and cell viability was determined by the trypan blue exclusion assay using a hemacytometer. […] After the appropriate treatment described above, cells were incubated with 0.1 mg/ml of 2,3-bis(2-methoxy-4-nitro-5-sulfophenyl)-5-[(phenylamino)carbonyl]-2H-tetrazolium hydroxide (XTT) for 4 hours, and then cell number was determined by the absorbance at 470 nm, which is proportional to the number of cells that remained attached to the plate. […] The appearance of apoptotic or necrotic cells was determined by flow cytometric analysis of cells double stained with Annexin V-FITC and propidium iodide (PI). […]

MCF7 = assay: Cell growth inhibition; format: cell-based; conditions: Homo sapiens
Method: Cell growth inhibition was determined by an XTT-based in-vitro toxicology assay (Sigma-Aldrich) or trypan blue staining. Cells were plated at a density of 3.5×10^4 per well in a 24-well plate in DMEM containing 10% FCS. These cells were allowed to attach for 24 hours, and the media were replaced with fresh media containing either vehicle (dimethyl sulfoxide) or appropriate concentrations of test compounds. After 36 hours of incubation with either vehicle or compounds, cells were trypsinized and cell viability was determined by the trypan blue exclusion assay using a hemacytometer. For the XTT assay, cells were seeded into 96-well cell culture plates at a density of 0.6×10^4 per well. After the appropriate treatment described above, cells were incubated with 0.1 mg/ml of 2,3-bis(2-methoxy-4-nitro-5-sulfophenyl)-5-[(phenylamino)carbonyl]-2H-tetrazolium hydroxide (XTT) for 4 hours, and then cell number was determined by the absorbance at 470 nm, which is proportional to the number of cells that remained attached to the plate. GI50s were calculated as the inhibitor concentration needed for 50% of vehicle-treated cell growth. The appearance of apoptotic or necrotic cells was determined by flow cytometric analysis of cells double stained with Annexin V-FITC and propidium iodide (PI). […]

human PFKFB3 [1] = molecular target: T1, human PFKFB3 (Homo sapiens, UniProt Q16875); assay: 2-Kase assay and kinetic analysis (enzyme-coupled Fru-2,6-BP assay); format: biochemical; design: 443 amino acid residues of the full-length protein of 520 residues; 6xHis; made in house; host or cells: Escherichia coli BL21(DE3) pLysS; conditions: for Inhibition (type): versus Fru-6-P
Method: To determine steady-state initial reaction rates, the 2-Kase reactions were performed first and the Fru-2,6-BP produced was measured by a conventional enzyme-coupled kinetics assay as described previously. The compounds, N4A and RBC2 came from the National Cancer Institute as indicated in Example 1. […] Initial rates of decrease in absorbance (Abs) at 340 nm were corrected with the rate of the control reaction in which no Fru-2,6-BP was present. Negative controls were carried out in the absence of enzyme and positive controls indicate the reaction in the presence of enzyme without inhibitor compounds. […] IC50 values were determined in quadruplicate. For the kinetic studies, concentrations of one of substrate and inhibitor were varied, and decrease in absorbance at 340 nm was measured. The inhibition patterns were analyzed using the program written by Cleland, in which Ki is the dissociation constants for the inhibitor from enzyme-inhibitor complex. For Selectivity studies, the 2-Kase assays were performed first and the F-2,6-P2 produced was measured by an enzyme coupled kinetics assay as described above. The His6-tagged PFKFB isoforms, PFKFB1, PFKFB2, and PFKFB4 were expressed in Escherichia coli C41(DE3) and purified using Ni-NTA affinity columns.

human PFKFB3 [2] = molecular target: T1, human PFKFB3; assay: Biochemical throughput screening of NCI Diversity Set II and steady-state inhibition kinetics; design: 443 amino acid residues of the full-length protein of 520 residues; 6xHis; made in house; conditions: against F-6-P and ATP
Method: To generate a framework of actives and non-actives for virtual screening, a throughput study of 1,364 NCI compounds was carried out. The inhibition extent of 10 μM of each compound, in substrate saturation conditions, was quantified and the results of the top 50 compounds are shown in FIG. 1. An arbitrary cutoff was chosen at 75% inhibition to describe compounds that were to be considered ‘potential’ actives. Based on this cutoff, 10 compounds were identified from the original 1,364.
To select the true positives, the 10 potential actives were subsequently tested for specificity for the F-6-P site, because the virtual screening was targeted for the F-6-P site. Using conventional steady state inhibition kinetics, 6 compounds were selected as the ‘true actives’ (T-actives), and these six compounds are shown in FIG. 3.
The recombinant human PFKFB3 was expressed and purified as previously described.[20] The 1,364 individual compounds of NCI's Diversity Set II were acquired from the NCI.
The 2-kinase activity assay for throughput screening was performed using a F-2,6-P2 assay modified for 96-well plates from the conventional method.[21] […] The reactions of seconds step were started by adding 0.5 mM sodium pyrophosphate (PPi) and were then measured for changes in absorbance at 340 nm over a period of 30 minutes. […]

HeLa cells [3] = assay: Soft agar colony formation; format: cell-based, human
Method: HeLa cell colony formation was determined by soft agar assay. Cells (2×10^3) were mixed in DMEM medium containing 0.35% agarose and varying concentrations of N4A or YN1. Then the cell mixture was added on a layer of 0.6% concentration of bottom agar in 24 well plate and allowed to grow for three weeks at 37° C. under 5% CO2. Fresh medium containing the inhibitors or vehicle (DMSO) was changed every four days. Colonies of 50 cells or more were counted after three weeks. The experiments were repeated at least five times.

PFKFB2 = molecular target: T2, PFKFB2 (Homo sapiens, UniProt O60825); assay: 2-Kase selectivity assay on PFKFB isoforms; format: biochemical; conditions: at twice the IC50 for PFKFB3 (N4A=6 μM, YN1=1.3 μM)
T2 construct: His6; made in house; host or cells: Escherichia coli C41(DE3)
Method: (§2) To determine steady-state initial reaction rates, the 2-Kase reactions were performed first and the Fru-2,6-BP produced was measured by a conventional enzyme-coupled kinetics assay as described previously. The compounds, N4A and RBC2 came from the National Cancer Institute as indicated in Example 1. […] Initial rates of decrease in absorbance (Abs) at 340 nm were corrected with the rate of the control reaction in which no Fru-2,6-BP was present. Negative controls were carried out in the absence of enzyme and positive controls indicate the reaction in the presence of enzyme without inhibitor compounds. The percentage of Inhibitory activity was calculated according to the formula: % inhibition=100×[1−(Absnegative control−Abscompound)/(Absnegative control−Abspositive control)]. IC50 values were determined in quadruplicate. For the kinetic studies, concentrations of one of substrate and inhibitor were varied, and decrease in absorbance at 340 nm was measured. The inhibition patterns were analyzed using the program written by Cleland, in which Ki is the dissociation constants for the inhibitor from enzyme-inhibitor complex. For Selectivity studies, the 2-Kase assays were performed first and the F-2,6-P2 produced was measured by an enzyme coupled kinetics assay as described above. The His6-tagged PFKFB isoforms, PFKFB1, PFKFB2, and PFKFB4 were expressed in Escherichia coli C41(DE3) and purified using Ni-NTA affinity columns.

PFKFB1 = molecular target: T3, PFKFB1 (Homo sapiens, UniProt P16118); assay: 2-Kase selectivity assay on PFKFB isoforms; format: biochemical; conditions: at twice the IC50 for PFKFB3 (N4A=6 μM, YN1=1.3 μM)
T3 construct: His6; made in house; host or cells: Escherichia coli C41(DE3)
Method: as §2

PFKFB4 = molecular target: T4, PFKFB4 (Homo sapiens, UniProt Q16877); assay: 2-Kase selectivity assay on PFKFB isoforms; format: biochemical; conditions: at twice the IC50 for PFKFB3 (N4A=6 μM, YN1=1.3 μM)
T4 construct: His6; made in house; host or cells: Escherichia coli C41(DE3)
Method: as §2

HeLa cells [4] = assay: Cellular Fru-2,6-BP level determination; format: cell-based, human; conditions: 25 μM, 8 hour exposure
Method: HeLa cells were plated at a density of 2.5×10^5 in a 6-well plate in DMEM containing 10% FCS. The media were replaced with fresh DMEM containing either vehicle (dimethyl sulfoxide) or 25 μM of inhibitor the following day. After 0, 4, 8, 12, 24, or 48 hours of incubation with each inhibitor, media samples were collected for measuring the lactate secretion levels using a lactate oxidase-based assay kit (Sigma-Aldrich), and the lactate concentration was normalized to the total cellular protein concentration. The Fru-2,6-BP level was determined with collected cells at times of 0, 4, 8, 12, 24, or 48 hours after the treatment, using the method described previously.

HeLa and T47D cells = assay: Cell growth inhibition (XTT or trypan blue); format: cell-based, human; conditions: for cell survival compared to unexposed cells: 25 μM
Method: as §1
Cell growth inhibition was determined by an XTT-based in-vitro toxicology assay (Sigma-Aldrich) or trypan blue staining. Cells were plated at a density of 3.5×10^4 per well in a 24-well plate in DMEM containing 10% FCS. These cells were allowed to attach for 24 hours, and the media were replaced with fresh media containing either vehicle (dimethyl sulfoxide) or appropriate concentrations of test compounds. After 36 hours of incubation with either vehicle or compounds, cells were trypsinized and cell viability was determined by the trypan blue exclusion assay using a hemacytometer. For the XTT assay, cells were seeded into 96-well cell culture plates at a density of 0.6×10^4 per well. After the appropriate treatment described above, cells were incubated with 0.1 mg/ml of 2,3-bis(2-methoxy-4-nitro-5-sulfophenyl)-5-[(phenylamino)carbonyl]-2H-tetrazolium hydroxide (XTT) for 4 hours, and then cell number was determined by the absorbance at 470 nm, which is proportional to the number of cells that remained attached to the plate. GI50s were calculated as the inhibitor concentration needed for 50% of vehicle-treated cell growth. The appearance of apoptotic or necrotic cells was determined by flow cytometric analysis of cells double stained with Annexin V-FITC and propidium iodide (PI). […] The fluorescence of samples were analyzed by flow cytometry (FACSCalibur®, Becton Dickinson Immunocytometry, San Jose, Calif.) using the CellQuest (BD Bioscience, Immunocytometry Systems, San Jose, Calif., USA) software.

HeLa cells [5] = assay: Flow-cytometric analysis of cell death (Annexin V-FITC / PI); format: cell-based, human
Method: Cell growth inhibition was determined by an XTT-based in-vitro toxicology assay (Sigma-Aldrich) or trypan blue staining. Cells were plated at a density of 3.5×10^4 per well in a 24-well plate in DMEM containing 10% FCS. These cells were allowed to attach for 24 hours, and the media were replaced with fresh media containing either vehicle (dimethyl sulfoxide) or appropriate concentrations of test compounds. After 36 hours of incubation with either vehicle or compounds, cells were trypsinized and cell viability was determined by the trypan blue exclusion assay using a hemacytometer. For the XTT assay, cells were seeded into 96-well cell culture plates at a density of 0.6×10^4 per well. After the appropriate treatment described above, cells were incubated with 0.1 mg/ml of 2,3-bis(2-methoxy-4-nitro-5-sulfophenyl)-5-[(phenylamino)carbonyl]-2H-tetrazolium hydroxide (XTT) for 4 hours, and then cell number was determined by the absorbance at 470 nm, which is proportional to the number of cells that remained attached to the plate. GI50s were calculated as the inhibitor concentration needed for 50% of vehicle-treated cell growth. The appearance of apoptotic or necrotic cells was determined by flow cytometric analysis of cells double stained with Annexin V-FITC and propidium iodide (PI). Apoptotic and necrotic cells were distinguished on the basis of double-labeling for Annexin V-FITC (Sigma-Aldrich) and PI, a membrane-impermeable DNA stain. Floating and freshly trypsinized cells were pooled, washed twice in binding buffer, and processed following manufacturer's instructions. The fluorescence of samples were analyzed by flow cytometry (FACSCalibur®, Becton Dickinson Immunocytometry, San Jose, Calif.) using the CellQuest (BD Bioscience, Immunocytometry Systems, San Jose, Calif., USA) software.

T1 sequence (Q16875 whole entry): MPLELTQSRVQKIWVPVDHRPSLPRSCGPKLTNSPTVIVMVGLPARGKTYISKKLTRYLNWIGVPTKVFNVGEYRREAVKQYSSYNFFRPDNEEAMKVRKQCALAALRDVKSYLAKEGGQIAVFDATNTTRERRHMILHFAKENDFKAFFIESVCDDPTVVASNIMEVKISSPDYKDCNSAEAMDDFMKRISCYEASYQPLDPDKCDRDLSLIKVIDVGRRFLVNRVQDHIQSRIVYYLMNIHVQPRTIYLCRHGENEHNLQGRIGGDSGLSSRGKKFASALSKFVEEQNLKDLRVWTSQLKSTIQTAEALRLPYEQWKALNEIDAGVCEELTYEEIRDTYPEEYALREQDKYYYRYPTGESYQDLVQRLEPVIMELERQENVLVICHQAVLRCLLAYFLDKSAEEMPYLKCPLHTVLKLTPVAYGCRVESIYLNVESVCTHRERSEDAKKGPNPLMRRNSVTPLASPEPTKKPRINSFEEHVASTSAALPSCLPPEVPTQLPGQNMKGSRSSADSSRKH
T4 sequence (Q16877 whole entry, canonical isoform): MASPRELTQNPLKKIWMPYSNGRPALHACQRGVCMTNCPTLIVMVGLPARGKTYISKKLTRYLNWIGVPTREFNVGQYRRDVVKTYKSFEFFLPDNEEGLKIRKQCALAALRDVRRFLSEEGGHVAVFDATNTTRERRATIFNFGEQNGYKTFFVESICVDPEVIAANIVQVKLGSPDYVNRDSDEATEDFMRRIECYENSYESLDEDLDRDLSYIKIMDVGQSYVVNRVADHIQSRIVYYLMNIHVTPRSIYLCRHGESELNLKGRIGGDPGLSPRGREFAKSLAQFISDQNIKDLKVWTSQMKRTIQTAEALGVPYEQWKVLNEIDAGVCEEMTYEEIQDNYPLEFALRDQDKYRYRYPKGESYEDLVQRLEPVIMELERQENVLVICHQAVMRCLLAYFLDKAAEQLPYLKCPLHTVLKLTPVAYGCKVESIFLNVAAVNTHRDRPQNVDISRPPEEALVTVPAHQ
T3 sequence (P16118 whole entry, canonical isoform): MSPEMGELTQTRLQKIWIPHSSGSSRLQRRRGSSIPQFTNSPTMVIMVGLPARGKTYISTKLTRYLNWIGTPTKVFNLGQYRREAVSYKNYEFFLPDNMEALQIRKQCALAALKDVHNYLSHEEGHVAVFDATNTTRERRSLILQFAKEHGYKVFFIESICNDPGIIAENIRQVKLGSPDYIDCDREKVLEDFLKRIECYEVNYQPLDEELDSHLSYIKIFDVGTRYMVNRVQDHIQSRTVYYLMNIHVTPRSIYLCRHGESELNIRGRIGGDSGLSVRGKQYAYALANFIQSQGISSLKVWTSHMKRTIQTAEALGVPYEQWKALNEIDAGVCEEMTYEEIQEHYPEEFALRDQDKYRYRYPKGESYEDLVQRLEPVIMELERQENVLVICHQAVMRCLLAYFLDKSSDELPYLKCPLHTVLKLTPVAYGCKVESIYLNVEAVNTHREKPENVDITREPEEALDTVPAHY
T2 sequence (O60825 whole entry, canonical isoform): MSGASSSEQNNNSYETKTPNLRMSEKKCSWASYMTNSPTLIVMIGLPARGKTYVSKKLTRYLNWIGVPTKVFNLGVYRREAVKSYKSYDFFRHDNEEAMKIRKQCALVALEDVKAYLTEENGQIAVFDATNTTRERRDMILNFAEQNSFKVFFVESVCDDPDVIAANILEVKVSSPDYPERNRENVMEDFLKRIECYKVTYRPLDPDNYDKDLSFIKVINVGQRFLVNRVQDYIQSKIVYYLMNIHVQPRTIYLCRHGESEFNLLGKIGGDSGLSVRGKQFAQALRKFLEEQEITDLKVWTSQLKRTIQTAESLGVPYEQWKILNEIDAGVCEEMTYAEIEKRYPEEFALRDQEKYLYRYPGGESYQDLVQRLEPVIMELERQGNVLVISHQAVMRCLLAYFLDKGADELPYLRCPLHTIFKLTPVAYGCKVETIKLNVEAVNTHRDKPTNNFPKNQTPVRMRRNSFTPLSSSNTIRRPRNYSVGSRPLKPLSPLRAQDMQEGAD

GI50 (T47D) [µM] | GI50 (MCF7) [µM] | inhibition pattern (human PFKFB3 [2]) | GI50 (HeLa and T47D cells; Homo sapiens, 36 h, cell line not stated in Table 1 (HeLa and T47D tested)) [µM] | Compound | Inhibition (type) (human PFKFB3 [1]) | inhibition at 25 µM (HeLa cells [3]; Homo sapiens, 504 h, soft agar, 25 μM, 3 weeks, read-out: colony formation inhibited) [%] | effect on colony formation (HeLa cells [3]; soft agar, 25, 50 and 100 μM) | percent inhibition of PFKFB2 (PFKFB2) | percent inhibition of PFKFB1 (PFKFB1) | percent inhibition of PFKFB4 (PFKFB4) | reduction of Fru-2,6-BP (ratio to control) (HeLa cells [4]) | cell survival compared to unexposed cells (HeLa and T47D cells) | type of cell death at low concentration (HeLa cells [5]; 25 μM) | type of cell death induced (HeLa cells [5]; 25 μM and 50 μM) | type of cell death at higher concentration (HeLa cells [5]; 50 μM) | inhibition at 10 µM (human PFKFB3 [1]; 10 μM, substrate-saturating conditions, not affected by 0.1% Tween-20) [%] | IC50 (human PFKFB3 [1]; PFKFB3 2-kinase activity) [µM] | Ki (human PFKFB3 [1]; competitive against Fru-6-P) [µM]
3.5 | 4.4 | competitive inhibition |  | CCOC(=O)C=C(C)Sc1cc(O)c2ccccc2c1O (stereo in doubt) [RBC2, (Z)-ethyl 3-((1,4-dihydroxynaphthalen-2-yl)thio)but-2-enoate] | Competitive |  |  |  |  |  |  |  |  |  |  |  |  | 
 |  |  |  | O=c1cc(-c2ccc(O)cc2)oc2c(O)c(O)c(O)c(O)c12 [Compound N4A, 5,6,7,8-tetrahydroxy-2-(4-hydroxyphenyl)chromene-4-one] | competitive inhibitor against Fru-6-P | 64 | significantly inhibited colony formation | less than 50% | less than 50% | less than 50% | approximately 20% | significant reduction in cell survival | cells were found to be prone to apoptosis | induced both apoptotic and necrotic cell death | death by necrosis was significantly increased | > 65 | 2.97 ± 0.16 | 1.29 ± 0.26
 |  |  | 2.7 | CCOC(=O)c1cc2ccc(O)cc2oc1=O [YZ9, ethyl 7-hydroxy-2-oxochromene-3-carboxylate] |  |  |  |  |  |  |  | significant reduction in cell survival |  |  |  |  |  | 
